# Columns and labels:
# [1] = target: T1, human TMEM16A (TMEM16Aabc variant) (Homo sapiens, UniProt Q5XXA6, DEL476-501); experiment: Automated whole-cell patch clamp (Qpatch) TMEM16A potentiator assay in recombinant FRT cells; format: cell-based; settings: for activation at 3.33 µM: percentage increase of baseline TMEM16A current, minimum n = 2, read-out: % Potentiation @ 3.33 uM Avg; for EC50: minimum n = 2
# T1 sequence (Q5XXA6 with tags, fused parts or gaps isoform Q5XXA6-5 DEL539-564): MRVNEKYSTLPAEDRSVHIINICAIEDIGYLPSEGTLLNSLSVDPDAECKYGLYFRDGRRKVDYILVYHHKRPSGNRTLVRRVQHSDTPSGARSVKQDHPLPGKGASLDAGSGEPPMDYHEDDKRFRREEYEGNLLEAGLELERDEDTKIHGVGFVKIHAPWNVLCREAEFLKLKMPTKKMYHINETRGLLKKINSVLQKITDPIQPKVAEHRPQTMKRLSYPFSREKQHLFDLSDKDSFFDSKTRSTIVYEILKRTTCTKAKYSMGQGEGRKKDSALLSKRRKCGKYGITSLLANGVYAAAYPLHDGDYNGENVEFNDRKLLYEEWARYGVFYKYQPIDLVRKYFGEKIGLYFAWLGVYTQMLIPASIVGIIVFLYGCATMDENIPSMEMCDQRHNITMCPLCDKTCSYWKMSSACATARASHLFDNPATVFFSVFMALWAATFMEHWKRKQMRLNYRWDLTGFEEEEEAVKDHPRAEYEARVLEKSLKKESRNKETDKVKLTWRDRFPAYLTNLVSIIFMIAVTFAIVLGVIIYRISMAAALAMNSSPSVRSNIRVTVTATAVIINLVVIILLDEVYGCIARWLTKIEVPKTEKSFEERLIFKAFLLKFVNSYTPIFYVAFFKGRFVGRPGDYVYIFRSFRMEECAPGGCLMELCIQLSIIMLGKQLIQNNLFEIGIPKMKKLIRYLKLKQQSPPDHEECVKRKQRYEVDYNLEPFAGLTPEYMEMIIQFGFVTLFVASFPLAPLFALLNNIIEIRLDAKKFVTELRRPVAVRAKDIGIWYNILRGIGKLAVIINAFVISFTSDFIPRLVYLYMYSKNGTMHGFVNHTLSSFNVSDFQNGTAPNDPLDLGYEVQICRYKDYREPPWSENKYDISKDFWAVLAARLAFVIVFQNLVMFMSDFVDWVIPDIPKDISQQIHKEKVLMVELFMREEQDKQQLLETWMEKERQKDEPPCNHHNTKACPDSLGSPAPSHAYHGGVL
# Experimental: Automated Whole-Cell Patch Clamp Assay to Detect TMEM16A Activity in Recombinant Cells
# Fisher rat thyroid (FRT) cells stably expressing human TMEM16A (TMEM16Aabc variant; Dr Luis Galietta, Insituto Giannina, Italy) were cultured in T-75 flasks in Hams F-12 media with Coon's modification (Sigma) supplemented with 10% (v/v) foetal bovine serum, penicillin-streptomycin (10,000 U/mL/10000 μg/mL), G-418 (750 μg/mL), L-glutamine (2 mM) and sodium bicarbonate solution (7.5% v/v). At ˜90% confluence cells were harvested for experiments by detachment with a 2:1 (v/v) mixture of Detachin (BMS Biotechnology) and 0.25% (w/v) trypsin-EDTA.
# FRT-TMEM16A cells were whole-cell patch clamped using an automated planar patch clamp system (Qpatch, Sophion). Briefly, once high resistance (GOhm) seals were established between the cells and the planar recording array the patch was ruptured using suction pulses to establish the whole-cell recording configuration of the patch clamp technique. The assay employed the following solutions (all reagents Sigma): Intracellular solution (mM): N-methyl-D-glucamine 130, CaCl2 18.2, MgCl2 1, HEPES 10, EGTA 10, BAPTA 20, Mg-ATP 2, pH 7.25, 325 mOsm with sucrose.
# Extracellular solution (mM): N-methyl-D-glucamine 130, CaCl2 2, MgCl2 1, HEPES 10, pH 7.3, 320 mOsm with sucrose.
# The intracellular solution buffers intracellular calcium at levels required to give ˜20% activation of the maximal TMEM16A mediated current (E020 for calcium ions). Cells were voltage clamped at a holding potential of −70mV and a combined voltage step (to +70 mV)/ramp (−90 my to +90 mV) was applied at 0.05 Hz. After a period of current stabilisation test compounds, solubilised in 100% (v/v) DMSO and subsequently diluted into extracellular solution, were applied to generate a cumulative concentration response curve. Each concentration of test compound was incubated for 5 minutes before addition of the next concentration. After the final concentration was tested a supramaximal concentration of either a known active positive modulator or the TMEM16A inhibitor, CaCCinhA01 (Del La Fuente et al, 2008) was added to define the upper and lower limits of the assay.
# Compound activity was quantified by measuring the increase in current upon compound addition and expressing this as a percentage increase of baseline TMEM16A current level.
# Peak TMEM16A current at +70 mV was plotted as a function of time over the assay period. Baseline current (IBL) was measured after a period of stabilisation. The increase in current for each compound addition was determined by taking the peak current during the incubation period and subtracting the current from the previous recording period and then expressing this as a percentage of the baseline current (% potentiation). For test compound concentration 1 in FIG. 1 this is:
# For each additional concentration tested the increase in current was determined by subtracting the current from the previous incubation period and normalising the baseline value—for test concentration 2 in FIG. 1 this is:
# The values for each test concentration were plotted as a cumulative function of concentration eg. for test concentration two this would be the sum of the peak changes measured during concentration one plus concentration two.
# [2] = Kinetic solubility determination (high throughput); format: physicochemical; settings: kinetic from dmso stock, sterile water, 5% DMSO, room temperature
# Experimental: Test compounds (10 μL; 20 mM DMSO solution) were added to sterile water (190 μL) in triplicate and shaken at 300 rpm at room temperature. After 90 min. the test compounds were filtered by centrifuge (5 min. at 3000 rpm) to obtain the aqueous filtrate. Acetonitrile (20 μL) was dispensed into clean 96-well UV/VIS analysis plate and aqueous filtrate (80 μL) added and the plate analysed for test compound concentration using a Molecular Devices SPECTRAmax® plus microplate reader at the following wavelengths: (280, 300, 320, 340, 360, 800 nm). […] The diluted filtrate (80 μL) was then added to acetonitrile (20 μL) and the plate analysed. as previously.
# [3] = Log D (pH7.4 shake flask); format: physicochemical; settings: pH 7.4; 1-octanol/phosphate buffer shake flask; read-out: mLogD (pH 7.4)
# Experimental: Phosphate buffer (1 M) was diluted to 20 mM with deionised water and adjusted to pH 7.4 with phosphoric acid or sodium hydroxide. 1-octanol and phosphate buffer (20 mM) were saturated overnight by tumbling. The two phases were separated using a separation funnel. 5 μL of 5 mM compound cassette was added to 495 μL of octanol-saturated buffer and 495 μL buffer saturated octanol in a 96-well plate (top concentration 50 μM). Plate was shaken for 1 h and centrifuged at 25° C. for 5 min. 200 μL of each phase was transferred to a separate plate. The octanol layer was sampled first to avoid cross contamination. 5 μL of the solutions were transferred to 495 μL of quench solution* (max concentration 0.5 μM). In addition, 40 μL of buffer solution was added to 360 μL of quench solvent (max concentration 5 μM). Samples were analysed by LC-MS/MS. Benchmarking against a calibration curve for each compound and with reference to the control compounds sulpride, diclofenac, chlorpromazine and tamoxifen. *Quench solution was a 1:3:1 mixture (v/v/v) of Acetonitrile containing 0.1% formic acid and imipramine/labetalol, 200 nM:Acetonitrile:Water.
activation at 3.33 µM [1] [%],solubility kinetic at 90 min [2] [µg/mL],logD [3],EC50 [1] [nM],SMILES
112,327,2.7,–,"CC(C)(C#N)NC(=O)c1cc(NC(=O)Cc2cc(O)c(C(C)(C)CN3CCOCC3)cc2F)ccn1 [Example 2.5, N-(1-Cyano-1-methyl-ethyl)-4-[[2-[4-(1,1-dimethyl-2-morpholino-ethyl)-2-fluoro-5-hydroxy-phenyl]acetyl]amino]pyridine-2-carboxamide]"
118,6,> 4,26,C#CC(C)(C)NC(=O)c1cc(NC(=O)Cc2cc(O)c(C(C)(C)C)cc2F)ccn1 [Example 1.1]
72.1,69,2.9,52,"CC(C)(C#N)c1cc(F)c(CC(=O)Nc2ccnc(C(=O)NC3(C(F)(F)F)CC3)c2)cc1O [Example 2.3, 4-[[2-[4-(1-Cyano-1-methyl-ethyl)-2-fluoro-5-hydroxy-phenyl]acetyl]amino]-N-[1-(trifluoromethyl)cyclopropyl]pyridine-2-carboxamide]"
356,42,> 4.2,150,"CC(C)(C)NC(=O)c1cc(NC(=O)Cc2cc(O)c(C(C)(C)C#N)cc2F)ccn1 [Example 2.2, N-tert-Butyl-4-[[2-[4-(1-cyano-1-methyl-ethyl)-2-fluoro-5-hydroxy-phenyl]acetyl]amino]pyridine-2-carboxamide]"
142,296,2.6,238,"CC(C)(CO)c1cc(F)c(CC(=O)Nc2ccnc(C(=O)N[C@H]3CCC[C@@H]3O)c2)cc1O [Example 12.2, 4-[[2-[2-Fluoro-5-hydroxy-4-(2-hydroxy-1,1-dimethyl-ethyl)phenyl]acetyl]amino]-N-[(1S,2S)-2-hydroxycyclopentyl]pyridine-2-carboxamide]"
309,164,3,219,"CC(C)(C#N)NC(=O)c1cc(NC(=O)Cc2cc(O)c(C(C)(O)C(F)(F)F)cc2F)ccn1 (stereo not drawn) [Example 2.7, N-(1-Cyano-1-methyl-ethyl)-4-[[2-[2-fluoro-5-hydroxy-4-(2,2,2-trifluoro-1-hydroxy-1-methyl-ethyl)phenyl]acetyl]amino]pyridine-2-carboxamide]"
195,44,> 4.2,36,"CC1(NC(=O)c2cc(NC(=O)Cc3cc(O)c(C(C)(C)CO)cc3Cl)ccn2)CC(F)(F)C1 [Example 15.2, 4-[[2-[2-Chloro-5-hydroxy-4-(2-hydroxy-1,1-dimethyl-ethyl)phenyl]acetyl]amino]-N-(3,3-difluoro-1-methyl-cyclobutyl)pyridine-2-carboxamide]"
240,37,> 4,46,"CC(C)(C)NC(=O)c1cc(NC(=O)Cc2cc(O)c(C3(C)CC3)cc2F)ccn1 [Example 8, N-tert-Butyl-4-[[2-[2-fluoro-5-hydroxy-4-(1-methylcyclopropyl)phenyl]acetyl]amino]pyridine-2-carboxamide]"
513,12,> 4,99,"CC(C)c1cc(C(C)(C)C)c(O)cc1CC(=O)Nc1ccnc(C(=O)NC(C)(C)C)c1 [Example 6, N-tert-Butyl-4-[[2-(4-tert-butyl-5-hydroxy-2-isopropyl-phenyl)acetyl]amino]pyridine-2-carboxamide]"
252,11,3.7,52,"CC(C)(C)c1cc(Cl)c(CC(=O)Nc2ccnc(C(=O)NC3(C#N)CC3)c2)cc1O [Example 10.2, 4-[[2-(4-tert-Butyl-2-chloro-5-hydroxy-phenyl)acetyl]amino]-N-(1-cyanocyclopropyl)pyridine-2-carboxamide]"
186,29,3.8,29,"[2H]c1c(O)c(C(C([2H])([2H])[2H])(C([2H])([2H])[2H])C([2H])([2H])[2H])cc(F)c1CC(=O)Nc1ccnc(C(=O)NC2(C#N)CC2)c1 [Example 4, N-(1-Cyanocyclopropyl)-4-[[2-[2-deuterio-6-fluoro-3-hydroxy-4-[2,2,2-trideuterio-1,1-bis(trideuteriomethyl)ethyl]phenyl]acetyl]amino]pyridine-2-carboxamide]"
149,3,> 4.5,45,C#CC1(NC(=O)c2cc(NC(=O)Cc3cc(O)c(C(C)(C)C)cc3F)ccn2)CCCC1 [Example 1.2]
148,11,3.7,65,CC(C)(C)c1cc(F)c(CC(=O)Nc2ccnc(C(=O)NC3(C#N)CC3)c2)cc1O [Example 1.5]
